# ± gives the expanded uncertainty stated by the source.
# Assays:
# [1] = excess molar enthalpy (molar enthalpy of mixing); xn = mol fraction of the nth substance listed; settings: Liquid
# [2] = Liquid
compound,measurement,setting,value
CCn1cc[n+](C)c1.O=S(=O)([N-]S(=O)(=O)C(F)(F)F)C(F)(F)F + CCO,excess molar enthalpy,"[1]; 323.15 K, 101.3 kPa, x2 = 0.0529",0.0909 ± 0.00382 kcal/mol
same,excess molar enthalpy,"[1]; 323.15 K, 101.3 kPa, x2 = 0.1017",0.163 ± 0.00621 kcal/mol
same,excess molar enthalpy,"[1]; 323.15 K, 101.3 kPa, x2 = 0.1885",0.297 ± 0.0108 kcal/mol
same,excess molar enthalpy,"[1]; 323.15 K, 101.3 kPa, x2 = 0.3291",0.463 ± 0.0165 kcal/mol
same,excess molar enthalpy,"[1]; 323.15 K, 101.3 kPa, x2 = 0.5246",0.586 ± 0.0208 kcal/mol
same,excess molar enthalpy,"[1]; 323.15 K, 101.3 kPa, x2 = 0.7259",0.525 ± 0.0186 kcal/mol
same,excess molar enthalpy,"[1]; 323.15 K, 101.3 kPa, x2 = 0.8436",0.384 ± 0.0139 kcal/mol
same,excess molar enthalpy,"[1]; 323.15 K, 101.3 kPa, x2 = 0.9687",0.105 ± 0.0043 kcal/mol
CCCCCC[n+]1ccn(C)c1.O=S(=O)([N-]S(=O)(=O)C(F)(F)F)C(F)(F)F + Cc1ccccc1,excess molar enthalpy,"[1]; 363.15 K, 101 kPa, x2 = 0.0501",-0.0218 ± 0.00141 kcal/mol
same,excess molar enthalpy,"[1]; 363.15 K, 101 kPa, x2 = 0.1001",-0.0441 ± 0.00213 kcal/mol
same,excess molar enthalpy,"[1]; 363.15 K, 101 kPa, x2 = 0.1501",-0.0645 ± 0.00287 kcal/mol
same,excess molar enthalpy,"[1]; 363.15 K, 101 kPa, x2 = 0.2002",-0.0866 ± 0.00359 kcal/mol
same,excess molar enthalpy,"[1]; 363.15 K, 101 kPa, x2 = 0.3002",-0.125 ± 0.00502 kcal/mol
same,excess molar enthalpy,"[1]; 363.15 K, 101 kPa, x2 = 0.4503",-0.169 ± 0.00645 kcal/mol
same,excess molar enthalpy,"[1]; 363.15 K, 101 kPa, x2 = 0.6003",-0.183 ± 0.00693 kcal/mol
same,excess molar enthalpy,"[1]; 363.15 K, 101 kPa, x2 = 0.7002",-0.164 ± 0.00621 kcal/mol
same,excess molar enthalpy,"[1]; 363.15 K, 101 kPa, x2 = 0.8002",-0.116 ± 0.00454 kcal/mol
same,excess molar enthalpy,"[1]; 363.15 K, 101 kPa, x2 = 0.8501",-0.0868 ± 0.00359 kcal/mol
same,excess molar enthalpy,"[1]; 363.15 K, 101 kPa, x2 = 0.9001",-0.0571 ± 0.00263 kcal/mol
same,excess molar enthalpy,"[1]; 363.15 K, 101 kPa, x2 = 0.9501",-0.0288 ± 0.00163 kcal/mol
CCCC[n+]1ccn(C)c1.O=S(=O)([N-]S(=O)(=O)C(F)(F)F)C(F)(F)F + Cc1ccccc1,excess molar enthalpy,"[1]; 363.15 K, 101 kPa, x2 = 0.0653",-0.023 ± 0.00146 kcal/mol
same,excess molar enthalpy,"[1]; 363.15 K, 101 kPa, x2 = 0.1255",-0.0435 ± 0.0021 kcal/mol
same,excess molar enthalpy,"[1]; 363.15 K, 101 kPa, x2 = 0.1811",-0.0624 ± 0.00263 kcal/mol
same,excess molar enthalpy,"[1]; 363.15 K, 101 kPa, x2 = 0.2325",-0.0772 ± 0.00335 kcal/mol
same,excess molar enthalpy,"[1]; 363.15 K, 101 kPa, x2 = 0.2803",-0.0908 ± 0.00382 kcal/mol
same,excess molar enthalpy,"[1]; 363.15 K, 101 kPa, x2 = 0.3249",-0.101 ± 0.00406 kcal/mol
same,excess molar enthalpy,"[1]; 363.15 K, 101 kPa, x2 = 0.4054",-0.122 ± 0.00478 kcal/mol
same,excess molar enthalpy,"[1]; 363.15 K, 101 kPa, x2 = 0.4761",-0.133 ± 0.00526 kcal/mol
same,excess molar enthalpy,"[1]; 363.15 K, 101 kPa, x2 = 0.5389",-0.139 ± 0.00526 kcal/mol
same,excess molar enthalpy,"[1]; 363.15 K, 101 kPa, x2 = 0.6451",-0.135 ± 0.00526 kcal/mol
same,excess molar enthalpy,"[1]; 363.15 K, 101 kPa, x2 = 0.7317",-0.108 ± 0.0043 kcal/mol
same,excess molar enthalpy,"[1]; 363.15 K, 101 kPa, x2 = 0.8035",-0.0824 ± 0.00335 kcal/mol
same,excess molar enthalpy,"[1]; 363.15 K, 101 kPa, x2 = 0.8911",-0.0447 ± 0.00213 kcal/mol
same,excess molar enthalpy,"[1]; 363.15 K, 101 kPa, x2 = 0.9608",-0.0171 ± 0.00127 kcal/mol
CCCCCC[n+]1ccn(C)c1.O=S(=O)([N-]S(=O)(=O)C(F)(F)F)C(F)(F)F + c1ccccc1,excess molar enthalpy,"[1]; 363.15 K, 101 kPa, x2 = 0.0854",-0.0378 ± 0.00191 kcal/mol
same,excess molar enthalpy,"[1]; 363.15 K, 101 kPa, x2 = 0.1608",-0.0698 ± 0.00311 kcal/mol
same,excess molar enthalpy,"[1]; 363.15 K, 101 kPa, x2 = 0.2279",-0.0993 ± 0.00406 kcal/mol
same,excess molar enthalpy,"[1]; 363.15 K, 101 kPa, x2 = 0.288",-0.12 ± 0.00478 kcal/mol
same,excess molar enthalpy,"[1]; 363.15 K, 101 kPa, x2 = 0.3421",-0.142 ± 0.0055 kcal/mol
same,excess molar enthalpy,"[1]; 363.15 K, 101 kPa, x2 = 0.3912",-0.163 ± 0.00621 kcal/mol
same,excess molar enthalpy,"[1]; 363.15 K, 101 kPa, x2 = 0.4765",-0.191 ± 0.00717 kcal/mol
same,excess molar enthalpy,"[1]; 363.15 K, 101 kPa, x2 = 0.5482",-0.21 ± 0.00789 kcal/mol
same,excess molar enthalpy,"[1]; 363.15 K, 101 kPa, x2 = 0.6094",-0.214 ± 0.00789 kcal/mol
same,excess molar enthalpy,"[1]; 363.15 K, 101 kPa, x2 = 0.7082",-0.206 ± 0.00765 kcal/mol
same,excess molar enthalpy,"[1]; 363.15 K, 101 kPa, x2 = 0.7845",-0.183 ± 0.00693 kcal/mol
same,excess molar enthalpy,"[1]; 363.15 K, 101 kPa, x2 = 0.8452",-0.138 ± 0.00526 kcal/mol
same,excess molar enthalpy,"[1]; 363.15 K, 101 kPa, x2 = 0.9161",-0.0683 ± 0.00287 kcal/mol
same,excess molar enthalpy,"[1]; 363.15 K, 101 kPa, x2 = 0.9704",-0.0212 ± 0.00141 kcal/mol
CCCC[n+]1ccn(C)c1.O=S(=O)([N-]S(=O)(=O)C(F)(F)F)C(F)(F)F + c1ccccc1,excess molar enthalpy,"[1]; 363.15 K, 101.3 kPa, x2 = 0.0498",-0.0235 ± 0.00148 kcal/mol
same,excess molar enthalpy,"[1]; 363.15 K, 101.3 kPa, x2 = 0.0997",-0.0451 ± 0.00215 kcal/mol
same,excess molar enthalpy,"[1]; 363.15 K, 101.3 kPa, x2 = 0.1495",-0.0678 ± 0.00287 kcal/mol
same,excess molar enthalpy,"[1]; 363.15 K, 101.3 kPa, x2 = 0.1994",-0.0875 ± 0.00359 kcal/mol
same,excess molar enthalpy,"[1]; 363.15 K, 101.3 kPa, x2 = 0.2992",-0.127 ± 0.00502 kcal/mol
same,excess molar enthalpy,"[1]; 363.15 K, 101.3 kPa, x2 = 0.4491",-0.176 ± 0.00669 kcal/mol
same,excess molar enthalpy,"[1]; 363.15 K, 101.3 kPa, x2 = 0.5991",-0.206 ± 0.00765 kcal/mol
same,excess molar enthalpy,"[1]; 363.15 K, 101.3 kPa, x2 = 0.6992",-0.198 ± 0.00741 kcal/mol
same,excess molar enthalpy,"[1]; 363.15 K, 101.3 kPa, x2 = 0.7994",-0.147 ± 0.00574 kcal/mol
same,excess molar enthalpy,"[1]; 363.15 K, 101.3 kPa, x2 = 0.8495",-0.112 ± 0.00454 kcal/mol
same,excess molar enthalpy,"[1]; 363.15 K, 101.3 kPa, x2 = 0.8997",-0.0716 ± 0.00311 kcal/mol
same,excess molar enthalpy,"[1]; 363.15 K, 101.3 kPa, x2 = 0.9498",-0.0353 ± 0.00184 kcal/mol
same,excess molar enthalpy,"[1]; 413.15 K, 101.3 kPa, x2 = 0.1462",-0.0688 ± 0.00287 kcal/mol
same,excess molar enthalpy,"[1]; 413.15 K, 101.3 kPa, x2 = 0.2087",-0.0954 ± 0.00382 kcal/mol
same,excess molar enthalpy,"[1]; 413.15 K, 101.3 kPa, x2 = 0.2654",-0.12 ± 0.00478 kcal/mol
same,excess molar enthalpy,"[1]; 413.15 K, 101.3 kPa, x2 = 0.3172",-0.142 ± 0.0055 kcal/mol
same,excess molar enthalpy,"[1]; 413.15 K, 101.3 kPa, x2 = 0.3647",-0.166 ± 0.00621 kcal/mol
same,excess molar enthalpy,"[1]; 413.15 K, 101.3 kPa, x2 = 0.4485",-0.196 ± 0.00741 kcal/mol
same,excess molar enthalpy,"[1]; 413.15 K, 101.3 kPa, x2 = 0.5202",-0.212 ± 0.00789 kcal/mol
same,excess molar enthalpy,"[1]; 413.15 K, 101.3 kPa, x2 = 0.5823",-0.22 ± 0.00813 kcal/mol
same,excess molar enthalpy,"[1]; 413.15 K, 101.3 kPa, x2 = 0.6844",-0.217 ± 0.00813 kcal/mol
same,excess molar enthalpy,"[1]; 413.15 K, 101.3 kPa, x2 = 0.7648",-0.186 ± 0.00693 kcal/mol
same,excess molar enthalpy,"[1]; 413.15 K, 101.3 kPa, x2 = 0.8299",-0.142 ± 0.0055 kcal/mol
same,excess molar enthalpy,"[1]; 413.15 K, 101.3 kPa, x2 = 0.907",-0.0792 ± 0.00335 kcal/mol
same,excess molar enthalpy,"[1]; 413.15 K, 101.3 kPa, x2 = 0.967",-0.0313 ± 0.00172 kcal/mol
CCCCCCCCC [nonane],vapor or sublimation pressure,[2]; 353.15 K,9.65 ± 0.47 kPa
C=CCCCCCC [oct-1-ene],vapor or sublimation pressure,[2]; 363.15 K,38.51 ± 1.4 kPa
C=CCCCCCC [oct-1-ene] + CCCCCC[n+]1ccn(C)c1.O=S(=O)([N-]S(=O)(=O)C(F)(F)F)C(F)(F)F,excess molar enthalpy,"[1]; 413.15 K, 101 kPa, x1 = 0.0504",0.0404 ± 0.00198 kcal/mol
same,excess molar enthalpy,"[1]; 413.15 K, 101 kPa, x1 = 0.0982",0.0729 ± 0.00311 kcal/mol
same,excess molar enthalpy,"[1]; 413.15 K, 101 kPa, x1 = 0.1437",0.102 ± 0.00406 kcal/mol
same,excess molar enthalpy,"[1]; 413.15 K, 101 kPa, x1 = 0.1869",0.131 ± 0.00502 kcal/mol
same,excess molar enthalpy,"[1]; 413.15 K, 101 kPa, x1 = 0.2281",0.142 ± 0.0055 kcal/mol
same,excess molar enthalpy,"[1]; 413.15 K, 101 kPa, x1 = 0.2675",0.141 ± 0.0055 kcal/mol
same,excess molar enthalpy,"[1]; 413.15 K, 101 kPa, x1 = 0.3409",0.13 ± 0.00502 kcal/mol
same,excess molar enthalpy,"[1]; 413.15 K, 101 kPa, x1 = 0.4082",0.116 ± 0.00454 kcal/mol
same,excess molar enthalpy,"[1]; 413.15 K, 101 kPa, x1 = 0.47",0.103 ± 0.00406 kcal/mol
same,excess molar enthalpy,"[1]; 413.15 K, 101 kPa, x1 = 0.5797",0.0815 ± 0.00335 kcal/mol
same,excess molar enthalpy,"[1]; 413.15 K, 101 kPa, x1 = 0.6742",0.0617 ± 0.00263 kcal/mol
same,excess molar enthalpy,"[1]; 413.15 K, 101 kPa, x1 = 0.7563",0.0472 ± 0.00222 kcal/mol
same,excess molar enthalpy,"[1]; 413.15 K, 101 kPa, x1 = 0.8613",0.0272 ± 0.00158 kcal/mol
CCCCCCCC [octane],vapor or sublimation pressure,[2]; 353.15 K,23.16 ± 0.9 kPa
CCC(=O)CC [pentan-3-one] + CCCCCC[n+]1ccn(C)c1.O=S(=O)([N-]S(=O)(=O)C(F)(F)F)C(F)(F)F,excess molar enthalpy,"[1]; 353.15 K, 101 kPa, x1 = 0.0503",-0.0247 ± 0.00151 kcal/mol
same,excess molar enthalpy,"[1]; 353.15 K, 101 kPa, x1 = 0.1005",-0.0527 ± 0.00239 kcal/mol
same,excess molar enthalpy,"[1]; 353.15 K, 101 kPa, x1 = 0.1507",-0.0794 ± 0.00335 kcal/mol
same,excess molar enthalpy,"[1]; 353.15 K, 101 kPa, x1 = 0.2009",-0.107 ± 0.0043 kcal/mol
same,excess molar enthalpy,"[1]; 353.15 K, 101 kPa, x1 = 0.3011",-0.156 ± 0.00598 kcal/mol
same,excess molar enthalpy,"[1]; 353.15 K, 101 kPa, x1 = 0.4013",-0.198 ± 0.00741 kcal/mol
same,excess molar enthalpy,"[1]; 353.15 K, 101 kPa, x1 = 0.5013",-0.24 ± 0.00884 kcal/mol
same,excess molar enthalpy,"[1]; 353.15 K, 101 kPa, x1 = 0.6013",-0.266 ± 0.0098 kcal/mol
same,excess molar enthalpy,"[1]; 353.15 K, 101 kPa, x1 = 0.7011",-0.276 ± 0.01 kcal/mol
same,excess molar enthalpy,"[1]; 353.15 K, 101 kPa, x1 = 0.8009",-0.249 ± 0.00908 kcal/mol
same,excess molar enthalpy,"[1]; 353.15 K, 101 kPa, x1 = 0.9005",-0.177 ± 0.00669 kcal/mol
same,excess molar enthalpy,"[1]; 353.15 K, 101 kPa, x1 = 0.9503",-0.109 ± 0.0043 kcal/mol

# From the NIST ThermoML archive (doi:10.1016/j.fluid.2007.06.001)
